pIC50, pKi: −log10 of the molar value. Active and inactive are the calls of the source. The calls are words filed in the database; no cut-off is given here.
What was measured:
[1] = target: Cholinesterase (Equus caballus, UniProt P81908); test: Inhibition of equine serum BuChE using S-butyrylthiocholine iodide as substrate pre-incubated for 30 mins followed by substrate addition and measured after 5 mins by DTNB reagent based Ellman's method
[2] = target: T1, Acetylcholinesterase (Electrophorus electricus, UniProt O42275); test: Inhibition of electric eel AChE using acetylthiocholine iodide as substrate pre-incubated for 30 mins followed by substrate addition and measured after 5 mins by DTNB reagent based Ellman's method
[3] = in vitro; conditions: PAMPA, pH 7.4
Description: Permeability of the compound at 30 to 50 uM at pH 7.4 by PAMPA-BBB assay

[4] = target: Acetylcholinesterase (Homo sapiens, UniProt P22303); test: Inhibition of AChE (unknown origin)
[5] = system: BV-2; test: Anti-neuroinflammatory activity against LPS-induced mouse BV-2 cells assessed as decrease in COX-2 protein expression pre-incubated for 1 hr followed by LPS addition and measured after 24 hrs by Western blotting analysis; assay type: functional, cell-based; conditions: dose 1-10 µM
[6] = system: BV-2; test: Anti-neuroinflammatory activity against LPS-induced mouse BV-2 cells assessed as inhibition of IL-1beta production pre-incubated for 1 hr followed by LPS addition and measured after 24 hrs by ELISA; assay type: functional, cell-based
[7] = Hepatotoxicity in mouse AML12 cells assessed as reduction in cell viability at 20 to 100 uM incubated for 24 hrs by MTT assay; assay type: toxicity, cell-based; conditions: aml12, 24 h, dose 20-100 µM
[8] = system: Mus musculus; test: Antialzheimer activity in scopolamine-induced C57BL mouse model assessed as increase in crossing frequency in platform area at 30 mg/kg, po administered for 7 days followed by scopolamine administration and measured after 5 days by Morris water maze test; assay type: functional, organism-based; conditions: time 12.0 day
[9] = target: T1, Acetylcholinesterase; test: Inhibition of electric eel AChE assessed as dissociation constant using acetylthiocholine iodide as substrate pre-incubated for 30 mins followed by substrate addition and measured after 5 mins by DTNB reagent based Ellman's method
[10] = system: Mus musculus; test: Antialzheimer activity in scopolamine-induced C57BL mouse model assessed as effect on swimming speed at 10 to 30 mg/kg, po administered for 7 days followed by scopolamine administration and measured after 4 days by Morris water maze test; assay type: functional, organism-based; conditions: dose 10-30 mg/kg, time 11.0 day
[11] = Acute toxicity in C57BL mouse assessed as liver damage upto 2000 mg/kg, po administered as single dose and measured after 2 weeks by hematoxylin and eosin staining based analysis; assay type: organism-based; conditions: in vivo, 336 h
[12] = Metal chelating activity assessed as Cu2+-compound complex formation by measuring red shift in maximum absorption wavelength at 50 uM incubated for 1 hr in presence of CuCl2 by UV-Visible spectrophotometry
[13] = Acute toxicity in C57BL mouse assessed as spleen damage upto 2000 mg/kg, po administered as single dose and measured after 2 weeks by hematoxylin and eosin staining based analysis; assay type: organism-based; conditions: in vivo, 336 h
[14] = Metal chelating activity assessed as Cu2+-compound complex formation by measuring drop in intensity of absorption curve at 50 uM incubated for 1 hr in presence of CuCl2 by UV-Visible spectrophotometry
[15] = target: Acetylcholinesterase (Electrophorus electricus) (UniProt O42275); test: Mixed type inhibition of electric eel AChE using acetylthiocholine iodide as substrate pre-incubated for 30 mins followed by substrate addition and measured after 5 mins by DTNB reagent based Ellman's method; conditions: dose 0-0.4 µM, time 35.0 min
[16] = Acute toxicity in C57BL mouse assessed as heart damage upto 2000 mg/kg, po administered as single dose and measured after 2 weeks by hematoxylin and eosin staining based analysis; assay type: organism-based; conditions: in vivo, 336 h
[17] = system: Mus musculus; test: Antialzheimer activity in scopolamine-induced C57BL mouse model assessed as increase in residence time in platform area at 30 mg/kg, po administered for 7 days followed by scopolamine administration and measured after 5 days by Morris water maze test; assay type: functional, organism-based; conditions: time 12.0 day
[18] = Metal chelating activity assessed as Zn2+-compound complex formation by measuring blue shift in maximum absorption wavelength at 50 uM incubated for 1 hr in presence of ZnCl2 by UV-Visible spectrophotometry
[19] = system: PC-12; test: Antioxidant activity in H2O2-induced rat PC12 cells assessed as reduction in intracellular ROS level incubated for 1 hr followed by H2O2 addition and measured after 5 hrs by DCFH-DA staining based laser confocal microscopy; assay type: functional, cell-based; conditions: dose 10-20 µM, time 6.0 hrs
[20] = system: BV-2; test: Anti-neuroinflammatory activity against LPS-induced mouse BV-2 cells assessed as inhibition of NO production pre-incubated for 1 hr followed by LPS addition and measured after 24 hrs by Griess reagent based assay; assay type: functional, cell-based
[21] = system: BV-2; test: Anti-neuroinflammatory activity against LPS-induced mouse BV-2 cells assessed as inhibition of TNF-alpha production pre-incubated for 1 hr followed by LPS addition and measured after 24 hrs by ELISA; assay type: functional, cell-based
[22] = system: PC-12; test: Neuroprotective activity against H2O2-induced cell death in rat PC12 cells assessed as increase in survival rate pre-incubated for 3 hrs followed by H2O2 addition and measured after 24 hrs by MTT assay; assay type: functional, cell-based; conditions: dose 1-20 µM, time 27.0 hrs
[23] = system: Mus musculus; test: Antialzheimer activity in scopolamine-induced C57BL mouse model assessed as prevention of irregular cellular arrangements in cortical cells of hippocampal region at 10 to 30 mg/kg, po administered for 7 days followed by scopolamine administration by hematoxylin and eosin staining based analysis; assay type: functional, organism-based; conditions: dose 10-30 mg/kg
[24] = system: BV-2; test: Anti-neuroinflammatory activity against LPS-induced mouse BV-2 cells assessed as decrease in iNOS protein expression pre-incubated for 1 hr followed by LPS addition and measured after 24 hrs by Western blotting analysis; assay type: functional, cell-based; conditions: dose 1-10 µM, time 25.0 hrs
[25] = Toxicity in C57BL mouse assessed as change in body weight at 10 to 30 mg/kg, po measured after 7 days; assay type: organism-based; conditions: in vivo, 168 h, dose 10-30 mg/kg, time 7 day
[26] = system: BV-2; test: Cytotoxicity against mouse BV-2 cells assessed as reduction in cell viability at 20 to 50 uM incubated for 24 hrs by MTT assay; assay type: toxicity, cell-based; conditions: bv-2, 24 h, dose 20-50 µM
[27] = system: Mus musculus; test: Antialzheimer activity in scopolamine-induced C57BL mouse model assessed as prevention of blurred borders in cortical cells of hippocampal region at 10 to 30 mg/kg, po administered for 7 days followed by scopolamine administration by hematoxylin and eosin staining based analysis; assay type: functional, organism-based; conditions: dose 10-30 mg/kg
[28] = system: Mus musculus; test: Antialzheimer activity in scopolamine-induced C57BL mouse model assessed as decrease in escape latency at 10 to 30 mg/kg, po administered for 7 days followed by scopolamine administration and measured after 4 days by Morris water maze test; assay type: functional, organism-based; conditions: dose 10-30 mg/kg, time 11.0 day
[29] = Acute toxicity in C57BL mouse assessed as lung damage upto 2000 mg/kg, po administered as single dose and measured after 2 weeks by hematoxylin and eosin staining based analysis; assay type: organism-based; conditions: in vivo, 336 h
[30] = Hepatotoxicity in human HepG2 cells assessed as reduction in cell viability at 20 to 100 uM incubated for 24 hrs by MTT assay; assay type: toxicity, cell-based; conditions: hepg2, 24 h, dose 20-100 µM
[31] = system: PC-12; test: Cytotoxicity against rat PC12 cells assessed as reduction in cell viability at 20 to 50 uM incubated for 24 hrs by MTT assay; assay type: toxicity, cell-based; conditions: pc-12, 24 h, dose 20-50 µM
[32] = Acute toxicity in C57BL mouse assessed as kidney damage upto 2000 mg/kg, po administered as single dose and measured after 2 weeks by hematoxylin and eosin staining based analysis; assay type: organism-based; conditions: in vivo, 336 h
[33] = target: T1, Acetylcholinesterase; test: Inhibition of electric eel AChE

T1 sequence (O42275 whole entry): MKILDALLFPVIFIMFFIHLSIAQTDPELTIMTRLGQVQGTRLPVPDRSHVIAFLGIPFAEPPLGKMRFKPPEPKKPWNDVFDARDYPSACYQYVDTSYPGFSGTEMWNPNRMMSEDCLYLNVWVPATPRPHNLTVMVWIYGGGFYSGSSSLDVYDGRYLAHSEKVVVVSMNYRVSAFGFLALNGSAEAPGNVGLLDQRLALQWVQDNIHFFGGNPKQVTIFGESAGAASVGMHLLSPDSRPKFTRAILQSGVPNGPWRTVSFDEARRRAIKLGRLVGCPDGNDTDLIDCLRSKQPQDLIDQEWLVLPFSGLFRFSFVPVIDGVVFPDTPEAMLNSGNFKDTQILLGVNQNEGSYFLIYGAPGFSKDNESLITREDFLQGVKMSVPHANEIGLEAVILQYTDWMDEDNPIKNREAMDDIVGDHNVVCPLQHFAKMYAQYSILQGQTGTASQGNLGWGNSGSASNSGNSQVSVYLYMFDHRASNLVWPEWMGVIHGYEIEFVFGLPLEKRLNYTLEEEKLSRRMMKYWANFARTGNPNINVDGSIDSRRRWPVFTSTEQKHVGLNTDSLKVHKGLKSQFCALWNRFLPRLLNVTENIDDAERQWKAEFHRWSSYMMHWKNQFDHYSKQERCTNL
Chain of Cholinesterase (P81908 whole entry): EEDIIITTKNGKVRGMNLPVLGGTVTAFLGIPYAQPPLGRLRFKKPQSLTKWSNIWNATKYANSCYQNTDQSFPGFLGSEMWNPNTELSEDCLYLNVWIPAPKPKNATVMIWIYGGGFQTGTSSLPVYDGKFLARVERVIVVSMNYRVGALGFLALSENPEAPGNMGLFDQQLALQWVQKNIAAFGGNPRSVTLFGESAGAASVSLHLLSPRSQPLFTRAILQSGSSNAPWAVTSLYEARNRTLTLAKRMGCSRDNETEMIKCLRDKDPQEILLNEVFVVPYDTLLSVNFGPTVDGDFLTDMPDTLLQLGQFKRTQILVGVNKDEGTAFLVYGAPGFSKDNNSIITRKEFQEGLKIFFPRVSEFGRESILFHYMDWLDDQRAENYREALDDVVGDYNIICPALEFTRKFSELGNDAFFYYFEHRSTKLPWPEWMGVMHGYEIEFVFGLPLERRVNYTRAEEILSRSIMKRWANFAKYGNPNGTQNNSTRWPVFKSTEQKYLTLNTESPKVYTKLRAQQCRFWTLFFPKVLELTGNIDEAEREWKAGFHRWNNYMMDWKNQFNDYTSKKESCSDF
Chain of Acetylcholinesterase (Homo sapiens, UniProt P22303) (P22303 whole entry): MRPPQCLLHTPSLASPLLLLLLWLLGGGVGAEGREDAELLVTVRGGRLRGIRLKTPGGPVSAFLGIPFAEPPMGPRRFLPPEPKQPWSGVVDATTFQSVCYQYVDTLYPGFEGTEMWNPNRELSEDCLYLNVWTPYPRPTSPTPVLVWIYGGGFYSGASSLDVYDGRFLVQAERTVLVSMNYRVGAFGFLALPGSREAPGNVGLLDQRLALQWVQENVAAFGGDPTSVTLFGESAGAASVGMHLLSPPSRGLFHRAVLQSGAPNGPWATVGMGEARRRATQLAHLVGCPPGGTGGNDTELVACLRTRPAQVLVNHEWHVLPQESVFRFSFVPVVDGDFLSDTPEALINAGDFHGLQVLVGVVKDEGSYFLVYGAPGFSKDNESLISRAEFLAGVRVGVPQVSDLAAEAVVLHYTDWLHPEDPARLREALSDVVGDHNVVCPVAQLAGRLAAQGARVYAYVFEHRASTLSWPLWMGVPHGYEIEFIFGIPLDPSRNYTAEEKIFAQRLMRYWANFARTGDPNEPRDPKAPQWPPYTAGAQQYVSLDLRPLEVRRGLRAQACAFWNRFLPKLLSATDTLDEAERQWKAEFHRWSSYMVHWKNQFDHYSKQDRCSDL
Chain of Acetylcholinesterase (Electrophorus electricus) (O42275 24-633 limits assumed): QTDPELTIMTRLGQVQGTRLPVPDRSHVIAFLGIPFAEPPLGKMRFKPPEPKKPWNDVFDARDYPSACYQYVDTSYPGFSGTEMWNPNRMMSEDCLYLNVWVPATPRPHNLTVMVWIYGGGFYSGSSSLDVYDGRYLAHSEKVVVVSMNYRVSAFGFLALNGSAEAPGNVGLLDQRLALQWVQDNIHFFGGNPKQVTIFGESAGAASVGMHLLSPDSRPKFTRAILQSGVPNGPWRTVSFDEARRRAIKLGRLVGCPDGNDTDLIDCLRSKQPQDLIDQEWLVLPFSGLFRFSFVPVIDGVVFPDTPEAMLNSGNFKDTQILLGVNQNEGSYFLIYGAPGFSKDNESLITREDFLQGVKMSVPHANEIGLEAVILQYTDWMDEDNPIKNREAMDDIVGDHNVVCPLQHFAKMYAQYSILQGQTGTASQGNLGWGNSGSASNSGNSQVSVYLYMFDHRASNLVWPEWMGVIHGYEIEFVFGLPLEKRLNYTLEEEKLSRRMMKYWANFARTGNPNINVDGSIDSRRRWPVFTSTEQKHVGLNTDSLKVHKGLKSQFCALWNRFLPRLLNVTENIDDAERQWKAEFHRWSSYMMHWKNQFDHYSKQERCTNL

Structure (SMILES): COc1ccc(Br)cc1S(=O)(=O)NCC(=O)Nc1ccc2c(=O)n3c(nc2c1)CCC3
- pIC50 [1]: < 4.30
- pIC50 [2]: 5.28

Structure (SMILES): CNC(=C[N+](=O)[O-])NCCSCc1ccc(CN(C)C)o1 [RANITIDINE]
- Papp at 50 µM [3]: 0.06 ×10⁻⁶ cm/s

Structure (SMILES): COc1ccc2[nH]c(C(=O)Nc3ccc4nc5n(c(=O)c4c3)CCC5)cc2c1
- pIC50 [4]: 6.92

Structure (SMILES): O=C(CNS(=O)(=O)c1ccc(Cl)cc1)Nc1ccc2c(=O)n3c(nc2c1)CCC3
- pIC50 [1]: < 4.30
- pIC50 [2]: 4.32

Structure (SMILES): COc1ccc(S(=O)(=O)NCC(=O)Nc2ccc3c(=O)n4c(nc3c2)CCC4)cc1OC
- pIC50 [1]: < 4.30
- pIC50 [2]: 4.98

Structure (SMILES): O=C(CNS(=O)(=O)c1ccc(F)cc1)Nc1ccc2c(=O)n3c(nc2c1)CCC3
- pIC50 [1]: < 4.30
- pIC50 [2]: 5.25

Structure (SMILES): O=C(CNS(=O)(=O)c1ccccc1C(F)(F)F)Nc1ccc2c(=O)n3c(nc2c1)CCC3
- Activity [5]: Dose-Dependent Effect
- pIC50 [6]: 5.77
- Activity ([6]; time 25.0 hrs): Dose-Dependent Effect
- Activity [7]: Non-Toxic
- Activity [8]: Active
- pKi [9]: 6.62
- Activity [10]: inactive
- Activity [11]: Non-Toxic
- Activity [12]: Active
- Activity [13]: Non-Toxic
- Activity [14]: Active
- inhibition [15]: Dose-Dependent Effect
- Activity [16]: Non-Toxic
- Activity [17]: Active
- Activity [18]: Active
- Activity [19]: Dose-Dependent Effect
- pIC50 [20]: 5.48
- Activity ([20]; time 25.0 hrs): Dose-Dependent Effect
- Papp at 50 µM [3]: 10.5 ×10⁻⁶ cm/s
- pIC50 [21]: 5.06
- Activity ([21]; time 25.0 hrs): Dose-Dependent Effect
- Activity [22]: Dose-Dependent Effect
- pIC50 [1]: < 4.30
- Activity [23]: Active
- Activity [24]: Dose-Dependent Effect
- Activity [25]: Non-Toxic
- Activity [26]: Non-Toxic
- Activity [27]: Active
- Activity [28]: Active
- Activity [29]: Non-Toxic
- Activity [30]: Non-Toxic
- pIC50 [2]: 6.62
- Activity [31]: Non-Toxic
- Activity [32]: Non-Toxic

Structure (SMILES): O=C(CNS(=O)(=O)c1ccc(C(F)(F)F)cc1)Nc1ccc2c(=O)n3c(nc2c1)CCC3
- pIC50 [1]: < 4.30
- pIC50 [2]: 4.61

Structure (SMILES): O=C(CNS(=O)(=O)c1cccc(Cl)c1)Nc1ccc2c(=O)n3c(nc2c1)CCC3
- pIC50 [1]: < 4.30
- pIC50 [2]: 5.40

Structure (SMILES): O=C(CNS(=O)(=O)c1cc(Cl)c(F)cc1F)Nc1ccc2c(=O)n3c(nc2c1)CCC3
- pIC50 [1]: < 4.30
- pIC50 [2]: < 4.30

Structure (SMILES): CCc1ccc(S(=O)(=O)NCC(=O)Nc2ccc3c(=O)n4c(nc3c2)CCC4)cc1
- pIC50 [1]: < 4.30
- pIC50 [2]: 4.50

Structure (SMILES): O=C(CNS(=O)(=O)c1cccc(OC(F)(F)F)c1)Nc1ccc2c(=O)n3c(nc2c1)CCC3
- pIC50 [1]: < 4.30
- pIC50 [2]: < 4.30

Structure (SMILES): O=c1c2ccccc2nc2n1CCC2 [DEOXYVASICINONE]
- Activity [7]: Non-Toxic
- pIC50 [33]: 4.08
- Activity [30]: Non-Toxic

Structure (SMILES): O=C(CCCCN1CCN(Cc2ccccc2)CC1)Nc1ccc2nc3n(c(=O)c2c1)CCC3
- pIC50 [4]: 8.48

Structure (SMILES): CC(C)(C)c1ccc(S(=O)(=O)NCC(=O)Nc2ccc3c(=O)n4c(nc3c2)CCC4)cc1
- pIC50 [1]: < 4.30
- pIC50 [2]: < 4.30

Structure (SMILES): O=C(CNS(=O)(=O)c1ccc(OC(F)(F)F)cc1)Nc1ccc2c(=O)n3c(nc2c1)CCC3
- pIC50 [1]: < 4.30
- pIC50 [2]: < 4.30

Structure (SMILES): O=C(CNS(=O)(=O)c1ccccc1OC(F)(F)F)Nc1ccc2c(=O)n3c(nc2c1)CCC3
- pIC50 [1]: < 4.30
- pIC50 [2]: 6.11

Structure (SMILES): NS(=O)(=O)c1cc2c(cc1Cl)N=CNS2(=O)=O [CHLOROTHIAZIDE]
- Papp at 50 µM [3]: 1.36 ×10⁻⁶ cm/s

Structure (SMILES): CCCc1ccc(S(=O)(=O)NCC(=O)Nc2ccc3c(=O)n4c(nc3c2)CCC4)cc1
- pIC50 [1]: < 4.30
- pIC50 [2]: < 4.30

Source: ChEMBL document CHEMBL5528012, “Discovery of novel deoxyvasicinone derivatives with benzenesulfonamide substituents as multifunctional agents against Alzheimer's disease” (Eur J Med Chem, 2024)
